Experimental findings from patent US6794412B1, “Treatment of thrombosis by combined use of a factor Xa inhibitor and aspirin” (Bristol-Myers Squibb Pharma Company, priority 1999, dated 2004) are described below.

The assay deals with rabbit model of arterial thrombosis. In words: Electrically induced carotid artery thrombosis in rabbits, carotid blood flow over 90 min. It counts as in vivo. On the procedure: Rabbits were anesthetized with ketamine (50 mg/kg i.m.) and xylazine (10 mg/kg i.m.) and then surgically prepared with arterial and venous catheters. An electromagnetic flow probe was placed on a segment of an isolated carotid artery to monitor blood flow. Thrombus formation was induced by electrical stimulation of the carotid artery for 3 min at 4 mA using an external stainless-steel bipolar electrode. Carotid blood flow was measured continuously over a 90-min period to monitor thrombus occlusion. Test agents were infused intravenously 1 hour prior to the electrical stimulation of the carotid artery and continuously during the 90-min period.

The mark [1] stands for this setting: Factor Xa inhibitor alone 0.1 mg/kg/hr i.v. infusion.

Take `CC(=O)Oc1ccccc1C(=O)O` [Aspirin]: for the setting “aspirin alone 1 mg/kg/hr i.v. infusion from 1 hour before stimulation and during 90 min”, the “prevention of occlusion of the carotid artery” value (from here on “prevention”) is recorded as “did not prevent the occlusion of the artery”.

Consider `CS(=O)(=O)c1ccccc1-c1ccc(NC(=O)c2cc(C(F)(F)F)nn2-c2cccc(CN)c2)c(F)c1.O=C(O)C(F)(F)F` [Compound (1)], for which the “prevention” value under setting [1] is listed as “did not prevent the occlusion of the artery”.

For the compound `NCc1cccc(-n2nc(C(F)(F)F)cc2C(=O)Nc2ccc(-c3ccccc3S(N)(=O)=O)cc2)c1.O=C(O)C(F)(F)F` [Compound (3)], the “prevention” value under setting [1] is “did not prevent the occlusion of the artery”.

Consider `CS(=O)(=O)O.Cc1noc(C)c1S(=O)(=O)N[C@@H](CNC(=O)C[C@H]1CC(c2ccc(C(=N)N)cc2)=NO1)C(=O)O` [Compound (4)], for which, under “Compound (4) alone 0.03 mg/kg/hr i.v.”, the “prevention” value is reported as “did not prevent the occlusion of the artery”.
